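Briefly, cells in 96-well plates were exposed to five compound concentrations for 48 h, and endpoints were estimated by linear interpolation. At the GI50, growth is halved.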 The source made the active and inactive calls. Cut-off read from the data, not from the text of the source: active = GI50 up to about 1.1 µM and inactive = higher.
Key:
Assay in all cases: growth of human tumour cells (NCI), 48 h
NCI-H226 = system: NCI-H226
SNB-75 = system: SNB-75
NCI-H23 = system: NCI-H23
SN12C = system: SN12C
RPMI-8226 = system: RPMI-8226
OVCAR-3 = system: OVCAR-3
NCI-H522 = system: NCI-H522
M14 = system: M14
T47D = system: T47D
HCT-116 = system: HCT-116
Malme-3M = system: Malme-3M
MDA-N = system: MDA-N
SNB-19 = system: SNB-19
HL-60 = system: HL-60
UACC-62 = system: UACC-62
SK-OV-3 = system: SK-OV-3
SF-539 = system: SF-539
EKVX = system: EKVX
MDA-MB-231 = system: MDA-MB-231
Hs-578T = system: Hs-578T
U-251 = system: U-251
OVCAR-4 = system: OVCAR-4
HOP-62 = system: HOP-62
OVCAR-5 = system: OVCAR-5
DU-145 = system: DU-145
MCF7 = system: MCF7
SK-MEL-28 = system: SK-MEL-28
HCT-15 = system: HCT-15
TK-10 = system: TK-10
NCI-H460 = system: NCI-H460
UO-31 = system: UO-31
IGROV-1 = system: IGROV-1
KM12 = system: KM12
CAKI-1 = system: CAKI-1
A549 = system: A549
MDA-MB-435 = system: MDA-MB-435
CCRF-CEM = system: CCRF-CEM
SK-MEL-5 = system: SK-MEL-5
K562 = system: K562
BT-549 = system: BT-549
LOX IMVI = system: LOX IMVI
A498 = system: A498
SR = system: SR
UACC-257 = system: UACC-257
RXF 393 = system: RXF 393
PC-3 = system: PC-3
HCC 2998 = system: HCC 2998
786-0 = system: 786-0
ACHN = system: ACHN
HT-29 = system: HT-29
HOP-92 = system: HOP-92
SF-295 = system: SF-295
OVCAR-8 = system: OVCAR-8
SW-620 = system: SW-620
NCI/ADR-RES = system: NCI/ADR-RES
SF-268 = system: SF-268
COLO 205 = system: COLO 205
MOLT-4 = system: MOLT-4
SK-MEL-2 = system: SK-MEL-2

Oc1c(Cl)ccc2cccnc12
GI50 (NCI-H226): 5.12 µM (inactive)
GI50 (SNB-75): 11.6 µM (inactive)
GI50 (NCI-H23): 5.06 µM (inactive)
GI50 (SN12C): 4.58 µM (inactive)
GI50 (RPMI-8226): 2.71 µM (inactive)
GI50 (OVCAR-3): 2.09 µM (inactive)
GI50 (NCI-H522): 1.63 µM (inactive)
GI50 (M14): 3 µM (inactive)
GI50 (T47D): 1.2 µM (inactive)
GI50 (HCT-116): 1.79 µM (inactive)
GI50 (Malme-3M): 8.89 µM (inactive)
GI50 (MDA-N): 16.6 µM (inactive)
GI50 (SNB-19): 13.3 µM (inactive)
GI50 (HL-60): 0.28 µM (active)
GI50 (UACC-62): 2.24 µM (inactive)
GI50 (SK-OV-3): 4.71 µM (inactive)
GI50 (SF-539): 3.4 µM (inactive)
GI50 (EKVX): 3.43 µM (inactive)
GI50 (MDA-MB-231): 3.76 µM (inactive)
GI50 (Hs-578T): 4.32 µM (inactive)
GI50 (U-251): 3.69 µM (inactive)
GI50 (OVCAR-4): 3.21 µM (inactive)
GI50 (HOP-62): 3.75 µM (inactive)
GI50 (OVCAR-5): 5.87 µM (inactive)
GI50 (DU-145): 9.73 µM (inactive)
GI50 (MCF7): 1.02 µM (active)
GI50 (SK-MEL-28): 22.8 µM (inactive)
GI50 (HCT-15): 0.927 µM
GI50 (TK-10): 4.36 µM (inactive)
GI50 (NCI-H460): 3.4 µM (inactive)
GI50 (UO-31): 3.35 µM (inactive)
GI50 (IGROV-1): 0.223 µM (active)
GI50 (KM12): 4.88 µM (inactive)
GI50 (CAKI-1): 3.25 µM (inactive)
GI50 (A549): 3.96 µM (inactive)
GI50 (MDA-MB-435): 10.1 µM (inactive)
GI50 (CCRF-CEM): 0.347 µM (active)
GI50 (SK-MEL-5): 3.42 µM (inactive)
GI50 (K562): 1.32 µM (inactive)
GI50 (BT-549): 15.5 µM (inactive)
GI50 (LOX IMVI): 1.94 µM (inactive)
GI50 (A498): 4.81 µM (inactive)
GI50 (SR): 1.88 µM (inactive)
GI50 (UACC-257): 6.03 µM (inactive)
GI50 (RXF 393): 1.83 µM (inactive)
GI50 (PC-3): 4.71 µM (inactive)
GI50 (HCC 2998): 12.7 µM (inactive)
GI50 (786-0): 6.18 µM (inactive)
GI50 (ACHN): 3.61 µM (inactive)
GI50 (HT-29): 18.4 µM (inactive)
GI50 (HOP-92): < 0.01 µM (active)
GI50 (SF-295): 2.79 µM (inactive)
GI50 (OVCAR-8): 2.63 µM (inactive)
GI50 (SW-620): 2.53 µM (inactive)
GI50 (NCI/ADR-RES): 0.432 µM (active)
GI50 (SF-268): 2.72 µM (inactive)
GI50 (COLO 205): 4.25 µM (inactive)
GI50 (MOLT-4): 1.84 µM (inactive)

O=C1CC(CC(O)C(O)C(O)CO)CC(=O)N1 (centres undefined)
GI50 (NCI-H226): > 100 µM (inactive)
GI50 (SNB-75): > 100 µM (inactive)
GI50 (NCI-H23): > 100 µM (inactive)
GI50 (SN12C): > 100 µM (inactive)
GI50 (RPMI-8226): > 100 µM (inactive)
GI50 (OVCAR-3): > 100 µM (inactive)
GI50 (NCI-H522): > 100 µM (inactive)
GI50 (M14): > 100 µM (inactive)
GI50 (T47D): > 100 µM (inactive)
GI50 (HCT-116): > 100 µM (inactive)
GI50 (Malme-3M): > 100 µM (inactive)
GI50 (MDA-N): > 100 µM (inactive)
GI50 (HL-60): > 100 µM (inactive)
GI50 (SF-539): > 100 µM (inactive)
GI50 (EKVX): > 100 µM (inactive)
GI50 (MDA-MB-231): > 100 µM (inactive)
GI50 (Hs-578T): > 100 µM (inactive)
GI50 (U-251): > 100 µM (inactive)
GI50 (OVCAR-4): > 100 µM (inactive)
GI50 (HOP-62): > 100 µM (inactive)
GI50 (OVCAR-5): > 100 µM (inactive)
GI50 (DU-145): > 100 µM (inactive)
GI50 (MCF7): > 100 µM (inactive)
GI50 (SK-MEL-28): > 100 µM (inactive)
GI50 (HCT-15): > 100 µM
GI50 (NCI-H460): > 100 µM (inactive)
GI50 (UO-31): > 100 µM (inactive)
GI50 (IGROV-1): > 100 µM (inactive)
GI50 (KM12): > 100 µM (inactive)
GI50 (CAKI-1): > 100 µM (inactive)
GI50 (A549): > 100 µM (inactive)
GI50 (MDA-MB-435): > 100 µM (inactive)
GI50 (CCRF-CEM): > 100 µM (inactive)
GI50 (SK-MEL-5): > 100 µM (inactive)
GI50 (K562): > 100 µM (inactive)
GI50 (BT-549): > 100 µM (inactive)
GI50 (LOX IMVI): > 100 µM (inactive)
GI50 (A498): > 100 µM (inactive)
GI50 (SR): > 100 µM (inactive)
GI50 (UACC-257): > 100 µM (inactive)
GI50 (RXF 393): > 100 µM (inactive)
GI50 (PC-3): > 100 µM (inactive)
GI50 (HCC 2998): > 100 µM (inactive)
GI50 (786-0): > 100 µM (inactive)
GI50 (ACHN): > 100 µM (inactive)
GI50 (HT-29): > 100 µM (inactive)
GI50 (HOP-92): > 100 µM (inactive)
GI50 (SF-295): > 100 µM (inactive)
GI50 (OVCAR-8): > 100 µM (inactive)
GI50 (SW-620): > 100 µM (inactive)
GI50 (NCI/ADR-RES): > 100 µM (inactive)
GI50 (SF-268): > 100 µM (inactive)
GI50 (COLO 205): > 100 µM (inactive)
GI50 (MOLT-4): > 100 µM (inactive)

Cn1c(=O)c2sc3c4sc5c(=O)n(C)c6ccccc6c5c4sc3c2c2ccccc21
GI50 (NCI-H226): > 100 µM (inactive)
GI50 (SNB-75): 42.6 µM (inactive)
GI50 (NCI-H23): > 100 µM (inactive)
GI50 (SN12C): > 100 µM (inactive)
GI50 (RPMI-8226): > 100 µM (inactive)
GI50 (OVCAR-3): > 100 µM (inactive)
GI50 (NCI-H522): > 100 µM (inactive)
GI50 (M14): > 100 µM (inactive)
GI50 (T47D): > 100 µM (inactive)
GI50 (HCT-116): > 100 µM (inactive)
GI50 (Malme-3M): > 100 µM (inactive)
GI50 (MDA-N): > 100 µM (inactive)
GI50 (SNB-19): 22.4 µM (inactive)
GI50 (HL-60): > 100 µM (inactive)
GI50 (UACC-62): > 100 µM (inactive)
GI50 (SK-OV-3): > 100 µM (inactive)
GI50 (SF-539): > 100 µM (inactive)
GI50 (EKVX): > 100 µM (inactive)
GI50 (MDA-MB-231): 31.5 µM (inactive)
GI50 (Hs-578T): 56.5 µM (inactive)
GI50 (U-251): 47.5 µM (inactive)
GI50 (OVCAR-4): 98.9 µM (inactive)
GI50 (HOP-62): 46.5 µM (inactive)
GI50 (OVCAR-5): > 100 µM (inactive)
GI50 (DU-145): > 100 µM (inactive)
GI50 (MCF7): > 100 µM (inactive)
GI50 (SK-MEL-28): > 100 µM (inactive)
GI50 (HCT-15): > 100 µM
GI50 (TK-10): > 100 µM (inactive)
GI50 (NCI-H460): > 100 µM (inactive)
GI50 (SK-MEL-2): > 100 µM (inactive)
GI50 (UO-31): > 100 µM (inactive)
GI50 (IGROV-1): > 100 µM (inactive)
GI50 (KM12): > 100 µM (inactive)
GI50 (CAKI-1): > 100 µM (inactive)
GI50 (A549): > 100 µM (inactive)
GI50 (MDA-MB-435): > 100 µM (inactive)
GI50 (CCRF-CEM): > 100 µM (inactive)
GI50 (SK-MEL-5): > 100 µM (inactive)
GI50 (K562): > 100 µM (inactive)
GI50 (BT-549): > 100 µM (inactive)
GI50 (A498): > 100 µM (inactive)
GI50 (SR): 66.4 µM (inactive)
GI50 (UACC-257): > 100 µM (inactive)
GI50 (RXF 393): 12.6 µM (inactive)
GI50 (PC-3): > 100 µM (inactive)
GI50 (HCC 2998): > 100 µM (inactive)
GI50 (786-0): 38.1 µM (inactive)
GI50 (ACHN): 48.1 µM (inactive)
GI50 (HT-29): > 100 µM (inactive)
GI50 (HOP-92): 90.8 µM (inactive)
GI50 (OVCAR-8): > 100 µM (inactive)
GI50 (SW-620): > 100 µM (inactive)
GI50 (NCI/ADR-RES): > 100 µM (inactive)
GI50 (SF-268): > 100 µM (inactive)
GI50 (COLO 205): > 100 µM (inactive)
GI50 (MOLT-4): > 100 µM (inactive)
